Molecular target: T1, human S1P1 receptors (Homo sapiens, UniProt P21453)
T1 construct: myc (N); expressed in transfected cells; host or cells: HeLa (human cervix carcinoma, ATCC CCL2), HeLa-S1P1/Gα16 cell clone 1
Assay: Human S1P1 Receptor Calcium FLIPR Antagonist Assay (HeLa Gα16 S1P1)
Assay type: cell-based
Conditions: relative antagonism of Ca2+ signal evoked by probing agonist GNF-AC-1 at EC80; HeLa-S1P1/Gα16 cells
Experimental: Human S1P1 Receptor Calcium FLIPR Antagonist Assay
The cells are plated in 384 well black plates (10′000 cells per well). […] After washing, the cells are transferred to the FLIPR. The test compounds are added at different concentrations […]) in HBSS in the presence of 0.1% BSA and changes in fluorescence are recorded (indication of agonism). The probing agonist is added 20-30 minutes afterwards to the wells at a concentration giving 80% of the maximal activity (EC80). After each addition, time points are collected as follows: 20 time points (2 seconds) before the addition of the agonist (Fmin) and 60 time points (1 or 2 seconds) after the addition of the probing agonist. This allows the determination of the maximal fluorescence (Fmax). The ratio (Fmax-Fmin)/Fmin is plotted against the log of the concentration of the test compounds and the IC50 (relative antagonism) is calculated using the XLfit-4 software. […] A concentration-response curve of the probing agonist is determined on each plate in parallel.

T1 sequence (P21453 whole entry): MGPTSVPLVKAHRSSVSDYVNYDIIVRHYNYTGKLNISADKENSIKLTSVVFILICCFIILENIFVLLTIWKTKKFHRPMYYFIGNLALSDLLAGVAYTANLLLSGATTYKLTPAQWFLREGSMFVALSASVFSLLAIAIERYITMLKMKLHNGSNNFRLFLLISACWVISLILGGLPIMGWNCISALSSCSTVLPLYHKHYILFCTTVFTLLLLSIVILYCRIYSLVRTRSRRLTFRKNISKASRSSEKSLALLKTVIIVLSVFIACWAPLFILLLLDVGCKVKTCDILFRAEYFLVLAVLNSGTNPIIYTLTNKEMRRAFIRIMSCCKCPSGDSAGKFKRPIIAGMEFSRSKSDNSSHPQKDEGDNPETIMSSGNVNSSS

Structure (SMILES) | IC50
Cc1cc(C(C)Nc2cccc(-c3ccc(C(=O)N[C@@H](C)C(=O)O)c(Cl)c3)c2)cc(C)c1Cl (stereo partly drawn) [Example 52, (S)-2-({3-Chloro-3′-[1-(4-chloro-3,5-dimethyl-phenyl)-ethylamino]-biphenyl-4-carbonyl}-amino)-propionic acid] | 1 nM
Cc1cc(C(C)Nc2cccc(-c3ccc(C(=O)N(C)[C@@H](C)C(=O)O)c(Cl)c3)c2)cc(C)c1Cl (stereo partly drawn) [Example 53, (S)-2-({3-Chloro-3′-[1-(4-chloro-3,5-dimethyl-phenyl)-ethylamino]-biphenyl-4-carbonyl}-methyl-amino)-propionic acid] | 5 nM
Cc1cc(C(C)Nc2cccc(-c3ccc(C(=O)N(C)[C@@H](C)C(=O)O)c(F)c3)c2)cc(C)c1Cl (stereo partly drawn) [Example 55, (S)-2-({3′-[1-(4-Chloro-3,5-dimethyl-phenyl)-ethylamino]-3-fluoro-biphenyl-4-carbonyl}-methyl-amino)-propionic acid] | 9 nM
Cc1cc(C(C)Nc2cccc(-c3cc(F)c(C(=O)N[C@@H](C)C(=O)O)c(F)c3)c2)cc(C)c1Cl (stereo partly drawn) [Example 56, (S)-2-({3′-[1-(4-Chloro-3,5-dimethyl-phenyl)-ethylamino]-3,5-difluoro-biphenyl-4-carbonyl}-amino)-propionic acid] | 1 nM
Cc1cc(C(C)Nc2cccc(-c3cc(F)c(C(=O)N(C)[C@@H](C)C(=O)O)c(F)c3)c2)cc(C)c1Cl (stereo partly drawn) [Example 57, (S)-2-({3′-[1-(4-Chloro-3,5-dimethyl-phenyl)-ethylamino]-3,5-difluoro-biphenyl-4-carbonyl}-methyl-amino)-propionic acid] | 6 nM
CCC(Nc1cccc(-c2ccc(C(=O)N(C)[C@@H](C)C(=O)O)c(C)c2)c1)c1ccc(Cl)c(C)c1 (stereo partly drawn) [Example 58, (S)-2-({3′-[1-(4-Chloro-3-methyl-phenyl)-propylamino]-3-methyl-biphenyl-4-carbonyl}-methyl-amino)-propionic acid] | 2 nM
Cc1cc(-c2cccc(NC(C)c3cc(C)c(Cl)c(C)c3)c2)ccc1C(=O)N(C)[C@@H](C)C(=O)O (stereo partly drawn) [Example 59, (S)-2-({3′-[1-(4-Chloro-3,5-dimethyl-phenyl)-ethylamino]-3-methyl-biphenyl-4-carbonyl}-methyl-amino)-propionic acid] | 3 nM
CCC(Nc1cccc(-c2ccc(C(=O)N[C@@H](C)C(=O)O)c(Cl)c2)c1)c1ccc(Cl)c(C)c1 (stereo partly drawn) [Example 60, (S)-2-({3-Chloro-3′-[1-(4-chloro-3-methyl-phenyl)-propylamino]-biphenyl-4-carbonyl}-amino)-propionic acid] | 1 nM
CCC(Nc1cccc(-c2ccc(C(=O)N(C)[C@@H](C)C(=O)O)c(Cl)c2)c1)c1ccc(Cl)c(C)c1 (stereo partly drawn) [Example 61, (S)-2-({3-Chloro-3′-[1-(4-chloro-3-methyl-phenyl)-propylamino]-biphenyl-4-carbonyl}-methyl-amino)-propionic acid] | 1 nM
Cc1cc(C(C)Nc2cccc(-c3ccc(C(=O)N[C@@H](C)C(=O)O)c(C(F)(F)F)c3)c2)ccc1Cl (stereo partly drawn) [Example 62, (S)-2-({3′-[1-(4-Chloro-3-methyl-phenyl)-ethylamino]-3-trifluoromethyl-biphenyl-4-carbonyl}-amino)-propionic acid] | 1 nM
Cc1cc(C(C)Nc2cccc(-c3ccc(C(=O)N(C)[C@@H](C)C(=O)O)c(C(F)(F)F)c3)c2)ccc1Cl (stereo partly drawn) [Example 63, (S)-2-({3′-[1-(4-Chloro-3-methyl-phenyl)-ethylamino]-3-trifluoromethyl-biphenyl-4-carbonyl}-methyl-amino)-propionic acid] | 2 nM
Cc1cc(C(C)Nc2cccc(-c3ccc(C(=O)N[C@@H](C)C(=O)O)c(C(F)(F)F)c3)c2)cc(C)c1Cl (stereo partly drawn) [Example 64, (S)-2-({3′-[1-(4-Chloro-3,5-dimethyl-phenyl)-ethylamino]-3-trifluoromethyl-biphenyl-4-carbonyl}-amino)-propionic acid] | 1 nM
Cc1cc(C(C)Nc2cccc(-c3ccc(C(=O)N(C)[C@@H](C)C(=O)O)c(C(F)(F)F)c3)c2)cc(C)c1Cl (stereo partly drawn) [Example 65, (S)-2-({3′-[1-(4-Chloro-3,5-dimethyl-phenyl)-ethylamino]-3-trifluoromethyl-biphenyl-4-carbonyl}-methyl-amino)-propionic acid] | 6 nM
CCC(Nc1cccc(-c2ccc(C(=O)N[C@@H](C)C(=O)O)c(C(F)(F)F)c2)c1)c1ccc(Cl)c(C)c1 (stereo partly drawn) [Example 66, (S)-2-({3′-[1-(4-Chloro-3-methyl-phenyl)-propylamino]-3-trifluoromethyl-biphenyl-4-carbonyl}-amino)-propionic acid] | 3 nM
CCC(Nc1cccc(-c2ccc(C(=O)N(C)[C@@H](C)C(=O)O)c(C(F)(F)F)c2)c1)c1ccc(Cl)c(C)c1 (stereo partly drawn) [Example 67, (S)-2-({3′-[1-(4-Chloro-3-methyl-phenyl)-propylamino]-3-trifluoromethyl-biphenyl-4-carbonyl}-methyl-amino)-propionic acid] | 3 nM
Cc1cc(C(C)Nc2cccc(-c3cc(C)c(C(=O)NCC(=O)O)c(C)c3)c2)ccc1Cl (centres unmarked) [Example 68, ({3′-[1-(4-Chloro-3-methyl-phenyl)-ethylamino]-3,5-dimethyl-biphenyl-4-carbonyl}-amino)-acetic acid] | 1 nM
COC[C@H](NC(=O)c1c(C)cc(-c2cccc(NC(C)c3ccc(Cl)c(C)c3)c2)cc1C)C(=O)O (stereo partly drawn) [Example 69, (S)-2-({3′-[1-(4-Chloro-3-methyl-phenyl)-ethylamino]-3,5-dimethyl-biphenyl-4-carbonyl}-amino)-3-methoxy-propionic acid] | 2 nM
Cc1cc(C(C)Nc2cccc(-c3cc(C)c(C(=O)N[C@@H](CCCCN)C(=O)O)c(C)c3)c2)ccc1Cl (stereo partly drawn) [Example 70, (S)-6-Amino-2-({3′-[1-(4-chloro-3-methyl-phenyl)-ethylamino]-3,5-dimethyl-biphenyl-4-carbonyl}-amino)-hexanoic acid] | 2 nM
Cc1cc(C(C)Nc2cccc(-c3cc(C)c(C(=O)NC4(C(=O)O)CCC4)c(C)c3)c2)ccc1Cl (centres unmarked) [Example 72, 1-({3′-[1-(4-Chloro-3-methyl-phenyl)-ethylamino]-3,5-dimethyl-biphenyl-4-carbonyl}-amino)-cyclobutanecarboxylic acid] | 2 nM
Cc1cc(C(C)Nc2cccc(-c3ccc(C(=O)N(C)[C@@H](C)C(=O)O)c(C)c3)c2)ccc1Cl (some centres unmarked) [Example 76] | 3 nM
Cc1cc(-c2cccc(NC(C)c3ccc(Cl)c(Cl)c3)c2)ccc1C(=O)N(C)[C@@H](C)C(=O)O (stereo partly drawn) [Example 78, (S)-2-({3′-[1-(3,4-Dichloro-phenyl)-ethylamino]-3-methyl-biphenyl-4-carbonyl}-methyl-amino)-propionic acid] | 7 nM
Cc1cc(C(C)Nc2cccc(-c3cc(C)c(C(=O)NC4(C(=O)O)CNC4)c(C)c3)c2)ccc1Cl (centres unmarked) [Example 79, 3-({3′-[1-(4-Chloro-3-methyl-phenyl)-ethylamino]-3,5-dimethyl-biphenyl-4-carbonyl}-amino)-azetidine-3-carboxylic acid] | 2 nM
Cc1cc(C(C)N(C)c2cccc(-c3cc(C)c(C(=O)N[C@@H](C)C(=O)O)c(C)c3)c2)ccc1Cl (stereo partly drawn) [Example 80, (S)-2-[(3′-{[1-(4-Chloro-3-methyl-phenyl)-ethyl]-methyl-amino}-3,5-dimethyl-biphenyl-4-carbonyl)-amino]-propionic acid] | 4 nM

Reference: patent US20100168079A1 (priority 2008, published 2010)
